In ChEMBL document CHEMBL4028883 (J Med Chem, 2017):
≈ marks a conversion by molar mass, not a printed value.

Columns and labels:
[1] = Chemical stability of the compound in Tris buffer at pH 8 at 25 degC after 90 days by HPLC method; assay type: physicochemical; details: read-out: Stability
in vitro [2] = details: human, liver microsomes
[3] = Clearance in rat at 0.5 mg/kg; assay type: ADME, organism-based; details: in vivo
[4] = Mean residence time in cynomolgus monkey at 2.03 mg/kg; assay type: ADME, organism-based, Macaca fascicularis; details: in vivo
[5] = Volume of distribution at steady state in rabbit at 0.5 mg/kg; assay type: ADME, organism-based, Oryctolagus cuniculus; details: in vivo, read-out: Vdss
in vivo [6] = details: rat, iv
physchem = details: phosphate buffer, pH 6.5
[7] = Chemical stability of the compound in phosphate buffer at pH 7.4 at 25 degC after 90 days by HPLC method; assay type: physicochemical; details: read-out: Stability
[8] = Lipophilicity, log D of the compound by HPLC method; assay type: physicochemical
[9] = Total AUC in dog at 4.75 mg/kg; assay type: ADME, organism-based, Canis lupus familiaris; parameters: dose 4.75 mg/kg, time AUCmax; details: in vivo
[10] = Half life in cynomolgus monkey at 2.03 mg/kg; assay type: ADME, organism-based, Macaca fascicularis; details: in vivo
[11] = Mean residence time in rat at 0.5 mg/kg; assay type: ADME, organism-based; details: in vivo
in vivo [12] = details: rat, iv; remark: listed apart in the source
in vivo [13] = details: rat, iv; remark: listed apart in the source
[14] = Clearance in rabbit at 0.5 mg/kg; assay type: ADME, organism-based, Oryctolagus cuniculus; details: in vivo
in vitro [15] = details: rat, liver microsomes
[16] = Mean residence time in rabbit at 0.5 mg/kg; assay type: ADME, organism-based, Oryctolagus cuniculus; details: in vivo
[17] = Chemical stability of the compound in phosphate buffer at pH 7.4 at 50 degC after 90 days by HPLC method; assay type: physicochemical; details: read-out: Stability
[18] = Aqueous solubility of the compound at pH 8.3; assay type: physicochemical; details: aqueous medium
[19] = Chemical stability of the compound in phosphate buffer at pH 6.5 at 37 degC after 90 days by HPLC method; assay type: physicochemical; details: read-out: Stability
[20] = Acid dissociation constant, pKa of the compound; assay type: physicochemical
[21] = Chemical stability of the compound in Tris buffer at pH 8 at 50 degC after 90 days by HPLC method; assay type: physicochemical; details: read-out: Stability
[22] = Aqueous solubility of the compound at pH 6.7; assay type: physicochemical; details: aqueous medium
[23] = Solubility of the compound in Tris buffer at pH 8; assay type: physicochemical
in vivo [24] = details: rat, iv; remark: listed apart in the source
[25] = Half life in rat at 0.5 mg/kg; assay type: ADME, organism-based; details: in vivo
[26] = Half life in dog at 4.75 mg/kg; assay type: ADME, organism-based, Canis lupus familiaris; details: in vivo
[27] = Clearance in cynomolgus monkey at 2.03 mg/kg; assay type: ADME, organism-based, Macaca fascicularis; details: in vivo
[28] = Clearance in dog at 4.75 mg/kg; assay type: ADME, organism-based, Canis lupus familiaris; details: in vivo
[29] = Chemical stability of the compound in phosphate buffer at pH 7.4 at 37 degC after 90 days by HPLC method; assay type: physicochemical; details: read-out: Stability
[30] = Total AUC in rat at 0.5 mg/kg; assay type: ADME, organism-based; parameters: dose 0.5 mg/kg, time AUCmax; details: in vivo
[31] = Total AUC in cynomolgus monkey at 2.03 mg/kg; assay type: ADME, organism-based, Macaca fascicularis; parameters: dose 2.03 mg/kg, time AUCmax; details: in vivo
[32] = Volume of distribution at steady state in rat at 0.5 mg/kg; assay type: ADME, organism-based; details: in vivo, read-out: Vdss
[33] = Total AUC in rabbit at 0.5 mg/kg; assay type: ADME, organism-based, Oryctolagus cuniculus; parameters: dose 0.5 mg/kg, time AUCmax; details: in vivo
[34] = Aqueous solubility of the compound at pH 8.5; assay type: physicochemical; details: aqueous medium
[35] = Volume of distribution at steady state in cynomolgus monkey at 2.03 mg/kg; assay type: ADME, organism-based, Macaca fascicularis; details: in vivo, read-out: Vdss
[36] = Solubility of the compound in phosphate buffer at pH 7.4; assay type: physicochemical
[37] = Chemical stability of the compound in phosphate buffer at pH 6.5 at 50 degC after 90 days by HPLC method; assay type: physicochemical; details: read-out: Stability
[38] = Half life in dog liver microsomes; assay type: ADME, Canis lupus familiaris, microsome
[39] = Chemical stability of the compound in phosphate buffer at pH 6.5 at 25 degC after 90 days by HPLC method; assay type: physicochemical; details: read-out: Stability
[40] = Half life in rabbit at 0.5 mg/kg; assay type: ADME, organism-based, Oryctolagus cuniculus; details: in vivo
[41] = Volume of distribution at steady state in dog at 4.75 mg/kg; assay type: ADME, organism-based, Canis lupus familiaris; details: in vivo, read-out: Vdss
[42] = Base dissociation constant, pKa of the compound; assay type: physicochemical
[43] = Chemical stability of the compound in Tris buffer at pH 8 at 37 degC after 90 days by HPLC method; assay type: physicochemical; details: read-out: Stability

CN1CCN(c2cccc3c2CCN(C(=O)/C=C/c2c(-n4cnnn4)ccc(Cl)c2F)[C@@H]3C(=O)Nc2ccc(C(=O)O)cc2)C(=O)C1 [BMS-962212]
remaining at […] [1]: 99% | half-life (in vitro [2]): 108 to 120 min | clearance [3]: 31 mL/min/kg | MRT [4]: < 60 min | Vd [5]: 0.71 L/kg | AUC (in vivo [6]): 0.309 µM·h | solubility at 24 h (physchem): 880 µg/mL (≈ 1340 µM) | remaining at […] [7]: 100% | logD [8]: 1.4 | AUC [9]: 7.76 µM·h | half-life [10]: 46.8 min | MRT [11]: < 60 min | Vd (in vivo [12]): 0.75 L/kg | half-life (in vivo [13]): 52.8 min | clearance [14]: 43 mL/min/kg | half-life (in vitro [15]): 59 min | MRT [16]: < 60 min | remaining at […] [17]: 94.6% | solubility [18]: > 25000 µg/mL | remaining at […] [19]: 99.8% | pKa [20]: 4.1 | remaining at […] [21]: 94% | solubility [22]: 260 µg/mL (≈ 394 µM) | solubility [23]: 11000 µg/mL (≈ 16700 µM) | clearance (in vivo [24]): 16 mL/min/kg | half-life [25]: 13.2 min | half-life [26]: 63 min | clearance [27]: 31 mL/min/kg | clearance [28]: 15 mL/min/kg | remaining at […] [29]: 99% | AUC [30]: 0.441 µM·h | AUC [31]: 1.59 µM·h | Vd [32]: 0.32 L/kg | AUC [33]: 0.27 µM·h | solubility [34]: > 100000 µg/mL | Vd [35]: 1.16 L/kg | solubility [36]: 1500 µg/mL (≈ 2280 µM) | remaining at […] [37]: 95.4% | half-life [38]: 120 min | remaining at […] [39]: 99.9% | half-life [40]: 36 min | Vd [41]: 1.02 L/kg | pKa [42]: 4.7 | remaining at […] [43]: 99.7%
